According to US11918662B2, “Heterocyclic compounds and imaging agents for imaging huntingtin protein” (CHDI Foundation, Inc., priority 2020, dated 2024):

These compounds were tested against T1, MBP-HTT(1-89)Q46-His(6×) (“Exon1-Q46”) protein aggregates (Homo sapiens, UniProt P42858, INS38QQQQQQQQQQQQQQQQQQQQQQQQQ) (assay: Exon1-Q46 Radioligand Binding Assay). Conditions: displacement of 0.3 nM [3H3-methyl]-5-((5-methoxypyridin-2-yl)methoxy)-2-(pyrazin-2-yl)benzo[d]oxazole from 1 μM aggregated Exon1-Q46, 60 minutes at 37° C.; read-out: Potency Range (IC50).
T1 construct: MBP-HTT(1-89)Q46-His(6×); His(6×) (C); made in house
T1 sequence (P42858 with tags, fused parts or gaps with the stated changes limits assumed): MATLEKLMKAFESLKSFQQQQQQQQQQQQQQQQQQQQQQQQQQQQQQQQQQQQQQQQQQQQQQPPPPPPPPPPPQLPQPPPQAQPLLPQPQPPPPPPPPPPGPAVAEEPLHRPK

Q: Which IC50 does the source give for `COc1cccc(NC(=O)CCCn2c(=O)c3nccn3c3ccc(F)cc32)c1` [Example 5-11] here?
A: < 100 nM

Q: For `O=C(CCCn1c(=O)c2cccn2c2ccc(F)cc21)NCc1cccnc1` [Example 1-7], which IC50 is on record?
A: 100 to 500 nM

Q: `O=C(CCn1c(=O)c2cccn2c2ccc(F)cc21)NCc1ccccc1` [Example 3-28] was tested. Which IC50 did it give?
A: < 100 nM

Q: How did the IC50 turn out when `[2H]C([2H])([2H])n1ncc2c(=O)n(CCC(=O)Nc3ccc(F)cc3F)c3cc(F)ccc3c21` [Example 19-3] was run?
A: < 100 nM

Q: With `COc1ccc(NC(=O)CCn2c(=O)c3cn(C)nc3c3ccc(F)cc32)nc1` [Example 9-28] as the compound, how does the IC50 read?
A: < 100 nM

Q: With `O=C(CCCn1c(=O)c2cccn2c2ccc(F)cc21)Nc1ccccc1` [Example 1-9] as the compound, how does the IC50 read?
A: < 100 nM

Q: Which IC50 does the source give for `COc1ccncc1NC(=O)CCn1c(=O)c2cccn2c2ccc(F)cc21` [Example 3-10] here?
A: < 100 nM

Q: For `Cn1ncc2c(=O)n(CCNC(=O)c3ccc(F)cc3F)c3cc(F)ccc3c21` [Example 16-1], which IC50 is on record?
A: < 100 nM

Q: With `O=C(CCCn1c(=O)c2cccn2c2ccc(F)cc21)Nc1cccc(Cl)c1` [Example 1-22] as the compound, how does the IC50 read?
A: < 100 nM

Q: `O=C(CCn1c(=O)c2cccn2c2ccc(F)cc21)Nc1ccccc1` [Example 3-22] was tested. Which IC50 did it give?
A: < 100 nM

Q: For `COc1ccc(N(C)C(=O)CCCn2c(=O)c3cccn3c3ccc(F)cc32)cc1` [Example 1-23], which IC50 is on record?
A: < 100 nM

Q: For `Cn1ncc2c(=O)n(CCC(=O)N3Cc4ccccc4C3)c3cc(F)ccc3c21` [Example 9-8], which IC50 is on record?
A: < 100 nM

Q: Which IC50 does the source give for `O=C(CCCn1c(=O)c2cccn2c2ccc(F)cc21)Nc1ccccc1Cl` [Example 1-25] here?
A: < 100 nM

Q: With `CN(C)CCNC(=O)CCn1c(=O)c2cccn2c2ccc(F)cc21` [Example 3-39] as the compound, how does the IC50 read?
A: 100 to 500 nM

Q: For `O=C(CCn1c(=O)c2cccn2c2ccc(F)cc21)N1CCc2ncccc2C1` [Example 3-50], which IC50 is on record?
A: < 100 nM

Q: Which IC50 does the source give for `O=C(CCn1c(=O)c2cccn2c2ccc(F)cc21)N1CCc2ccccc21` [Example 3-46] here?
A: < 100 nM

Q: How did the IC50 turn out when `COc1ccc(OCCCn2c(=O)c3cccn3c3ccc(F)cc32)nc1` [Example 11-1, 7-Fluoro-5-{3-[(5-methoxypyridin-2-yl)oxy]propyl}-4H,5H-pyrrolo[1,2-a]quinoxalin-4-one] was run?
A: < 100 nM

Q: With `COc1ccc(C(=O)NCCn2c(=O)c3cccn3c3ccccc32)nc1` [Example 14-1, 5-Methoxy-N-(2-{4-oxo-4H,5H-pyrrolo[1,2-a]quinoxalin-5-yl}ethyl)pyridine-2-carboxamide] as the compound, how does the IC50 read?
A: < 100 nM

Q: With `Cc1ccnc(NC(=O)CCn2c(=O)c3ccnn3c3ccc(F)cc32)c1` [Example 8-11] as the compound, how does the IC50 read?
A: < 100 nM

Q: How did the IC50 turn out when `Cn1ncc2c(=O)n(CCC(=O)N3CCc4ccccc4C3)c3cc(F)ccc3c21` [Example 9-14] was run?
A: < 100 nM

Q: Which IC50 does the source give for `O=C(CCn1c(=O)c2cccn2c2ccc(F)cc21)N1CCCC(C(F)(F)F)C1` (centres unmarked) [Example 3-41] here?
A: < 100 nM

Q: For `O=C(CCn1c(=O)c2cccn2c2ccc(F)cc21)N1CCCC1` [Example 3-43], which IC50 is on record?
A: < 100 nM

Q: Which IC50 does the source give for `COc1ccc(NC(=O)CCCn2c(=O)c3cccn3c3ccc(OC)cc32)cc1` [Example 5-7] here?
A: < 100 nM

Q: For `Cc1ccc(C(=O)NCCn2c(=O)c3cccn3c3ccc(F)cc32)cc1` [Example 12-1, N-[2-(7-Fluoro-4-oxo-pyrrolo[1,2-a]quinoxalin-5-yl)ethyl]-4-methyl-benzamide], which IC50 is on record?
A: < 100 nM

Q: Which IC50 does the source give for `CCNC(=O)CCCn1c(=O)c2cccn2c2ccc(F)cc21` [Example 1-34] here?
A: 100 to 500 nM

Q: How did the IC50 turn out when `Cc1ccccc1NC(=O)CCn1c(=O)c2cccn2c2ccc(F)cc21` [Example 3-27] was run?
A: < 100 nM

Q: For `COc1ncccc1NC(=O)CCn1c(=O)c2cccn2c2ccc(F)cc21` [Example 3-4], which IC50 is on record?
A: < 100 nM

Q: For `O=C(CCn1c(=O)c2cccn2c2ccc(F)cc21)N1CCc2ncccc21` [Example 3-59], which IC50 is on record?
A: < 100 nM

Q: How did the IC50 turn out when `Cn1ncc2c(=O)n(CCC(=O)Nc3cccc(F)c3F)c3cc(F)ccc3c21` [Example 9-13] was run?
A: < 100 nM

Q: With `Cc1nn(C)c2c1c(=O)n(CCC(=O)Nc1ccccc1F)c1cc(F)ccc21` [Example 9-27] as the compound, how does the IC50 read?
A: < 100 nM

Q: Which IC50 does the source give for `C[C@@H]1CN(C(=O)CCCn2c(=O)c3cccn3c3ccc(F)cc32)C[C@@H](C)O1` [Example 1-1, 5-{4-[(2R,6R)-2,6-Dimethylmorpholin-4-yl]-4-oxobutyl}-7-fluoro-4H,5H-pyrrolo[1,2-a]quinoxalin-4-one] here?
A: < 100 nM

Q: With `O=C(CCCn1c(=O)c2cccn2c2ccc(F)cc21)N1CCCC1` [Example 1-38] as the compound, how does the IC50 read?
A: < 100 nM

Q: With `COc1cccc(NC(=O)CCCn2c(=O)c3cccn3c3ccccc32)c1` [Example 5-3] as the compound, how does the IC50 read?
A: < 100 nM

Q: How did the IC50 turn out when `COc1ccc(NC(=O)CCCn2c(=O)c3cccn3c3ccccc32)cc1` [Example 5-2] was run?
A: < 100 nM

Q: For `O=C(CCCn1c(=O)c2cccn2c2ccc(F)cc21)Nc1ccccn1` [Example 1-6], which IC50 is on record?
A: < 100 nM

Q: `O=C(CCn1c(=O)c2cccn2c2ccc(F)cc21)NC1CCCCC1` [Example 3-34] was tested. Which IC50 did it give?
A: < 100 nM

Q: With `O=C(CCn1c(=O)c2cccn2c2ccc(F)cc21)Nc1cccnc1` [Example 3-23] as the compound, how does the IC50 read?
A: < 100 nM

Q: With `COc1ccnc(NC(=O)CCCn2c(=O)c3cccn3c3ccc(OC)cc32)c1` [Example 5-10] as the compound, how does the IC50 read?
A: < 100 nM

Q: For `CN1CCN(C(=O)CCCn2c(=O)c3cccn3c3ccc(F)cc32)CC1=O` [Example 1-41], which IC50 is on record?
A: < 100 nM

Q: For `COc1cc(NC(=O)CCn2c(=O)c3cccn3c3ccc(F)cc32)ccn1` [Example 3-5], which IC50 is on record?
A: < 100 nM

Q: With `Cn1ncc2c(=O)n(CCC(=O)Nc3cc(Cl)ccc3F)c3cc(F)ccc3c21` [Example 9-15] as the compound, how does the IC50 read?
A: < 100 nM

Q: With `Cc1ccc(NC(=O)CCn2c(=O)c3cccn3c3ccccc32)cc1` [Example 29-4] as the compound, how does the IC50 read?
A: < 100 nM

Q: Which IC50 does the source give for `COc1ccccc1NC(=O)CCn1c(=O)c2cnn(C)c2c2ccc(F)cc21` [Example 9-3] here?
A: < 100 nM

Q: `COc1ccc(N(C)C(=O)CCn2c(=O)c3cccn3c3ccc(F)cc32)cc1` [Example 3-14] was tested. Which IC50 did it give?
A: < 100 nM

Q: With `O=C(CCCn1c(=O)c2cccn2c2ccc(F)cc21)NCCc1ccccc1` [Example 1-20] as the compound, how does the IC50 read?
A: < 100 nM

Q: With `CC1CCC(N(C)C(=O)CCn2c(=O)c3cccn3c3ccc(F)cc32)CC1` (centres unmarked) [Example 3-45] as the compound, how does the IC50 read?
A: < 100 nM

Q: With `O=C(CCCn1c(=O)c2cccn2c2ccccc21)N1CCCCC1` [Example 5-18] as the compound, how does the IC50 read?
A: < 100 nM

Q: `CCNC(=O)CCn1c(=O)c2cccn2c2ccc(F)cc21` [Example 3-38] was tested. Which IC50 did it give?
A: < 100 nM

Q: How did the IC50 turn out when `O=C(CCn1c(=O)c2cccn2c2ccc(F)cc21)Nc1ccccn1` [Example 3-19] was run?
A: < 100 nM

Q: With `O=C(CCn1c(=O)c2ccnn2c2ccc(F)cc21)Nc1ccc(F)cn1` [Example 8-12] as the compound, how does the IC50 read?
A: < 100 nM

Q: `COc1ccccc1NC(=O)CCn1c(=O)c2ccnn2c2ccc(F)cc21` [Example 8-5] was tested. Which IC50 did it give?
A: < 100 nM

Q: `O=C(CCn1c(=O)c2cccn2c2ccc(F)cc21)NCCc1cccnc1` [Example 3-33] was tested. Which IC50 did it give?
A: < 100 nM

Q: `Cc1cccc(NC(=O)CCn2c(=O)c3cnn(C)c3c3ccc(F)cc32)c1F` [Example 9-25] was tested. Which IC50 did it give?
A: < 100 nM
